Measurements: PMC4654778 (Clinical cancer research : an official journal of the …, 2012)

Legend:
[1] = biological target: FGFR-4 (Homo sapiens, UniProt P22455, G388R); format: cell-based
[2] = biological target: FGFR-1 (Homo sapiens, UniProt P11362); format: cell-based
Sequence of FGFR-1 (P11362 22-822): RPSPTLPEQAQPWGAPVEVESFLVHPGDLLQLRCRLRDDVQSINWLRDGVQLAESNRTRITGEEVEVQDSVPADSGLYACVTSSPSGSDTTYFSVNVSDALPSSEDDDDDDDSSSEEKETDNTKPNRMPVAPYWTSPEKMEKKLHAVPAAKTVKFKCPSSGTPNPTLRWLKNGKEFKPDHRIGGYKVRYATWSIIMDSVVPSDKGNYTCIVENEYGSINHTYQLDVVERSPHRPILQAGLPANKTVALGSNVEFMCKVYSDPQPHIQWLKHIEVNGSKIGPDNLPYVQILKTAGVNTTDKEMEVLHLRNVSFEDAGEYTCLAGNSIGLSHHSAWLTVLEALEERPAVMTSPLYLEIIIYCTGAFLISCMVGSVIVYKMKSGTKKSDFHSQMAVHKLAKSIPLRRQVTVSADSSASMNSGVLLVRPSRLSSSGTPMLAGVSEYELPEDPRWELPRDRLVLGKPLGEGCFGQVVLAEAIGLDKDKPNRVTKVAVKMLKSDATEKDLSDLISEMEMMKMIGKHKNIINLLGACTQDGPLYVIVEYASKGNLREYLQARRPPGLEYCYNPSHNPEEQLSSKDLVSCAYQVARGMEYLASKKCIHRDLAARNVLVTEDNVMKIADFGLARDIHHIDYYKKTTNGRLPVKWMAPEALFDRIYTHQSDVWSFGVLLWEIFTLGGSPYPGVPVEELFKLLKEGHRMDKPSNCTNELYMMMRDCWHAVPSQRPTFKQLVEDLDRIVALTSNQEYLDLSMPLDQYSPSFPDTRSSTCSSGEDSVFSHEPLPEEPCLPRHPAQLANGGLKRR

Sequence of FGFR-4 (P22455 22-802 G388R): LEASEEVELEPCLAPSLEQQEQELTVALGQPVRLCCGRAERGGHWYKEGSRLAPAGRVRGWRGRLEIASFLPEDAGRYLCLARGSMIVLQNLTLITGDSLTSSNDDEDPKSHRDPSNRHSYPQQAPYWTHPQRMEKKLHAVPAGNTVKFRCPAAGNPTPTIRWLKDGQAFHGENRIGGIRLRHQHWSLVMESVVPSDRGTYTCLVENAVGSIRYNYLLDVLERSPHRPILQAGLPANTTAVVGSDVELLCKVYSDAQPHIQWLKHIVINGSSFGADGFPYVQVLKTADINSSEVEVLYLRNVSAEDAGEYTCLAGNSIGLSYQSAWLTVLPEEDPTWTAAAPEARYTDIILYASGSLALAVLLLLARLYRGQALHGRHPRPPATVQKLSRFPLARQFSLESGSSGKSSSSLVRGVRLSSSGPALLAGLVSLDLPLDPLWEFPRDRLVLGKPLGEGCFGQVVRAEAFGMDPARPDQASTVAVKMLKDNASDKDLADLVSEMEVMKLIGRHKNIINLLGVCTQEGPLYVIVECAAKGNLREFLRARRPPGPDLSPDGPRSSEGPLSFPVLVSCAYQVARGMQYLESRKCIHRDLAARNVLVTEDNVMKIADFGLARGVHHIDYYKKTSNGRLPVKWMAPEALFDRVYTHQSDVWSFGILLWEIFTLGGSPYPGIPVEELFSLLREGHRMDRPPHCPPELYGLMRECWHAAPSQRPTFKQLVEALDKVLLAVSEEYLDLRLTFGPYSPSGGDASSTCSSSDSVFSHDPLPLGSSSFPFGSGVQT

AZ8010
% inhibition at 100 nM [1]: 75 | % inhibition at 100 nM [2]: 86
